Some results are limits rather than exact numbers.

This note sets out measurements from ChEMBL document CHEMBL1136872, “Potent and selective alpha1A adrenoceptor partial agonists--novel imidazole frameworks” (Bioorg Med Chem Lett, 2009).

The target in series [1] is T1, Alpha-1A adrenergic receptor (Homo sapiens, UniProt P35348).
T1 sequence (P35348 whole entry): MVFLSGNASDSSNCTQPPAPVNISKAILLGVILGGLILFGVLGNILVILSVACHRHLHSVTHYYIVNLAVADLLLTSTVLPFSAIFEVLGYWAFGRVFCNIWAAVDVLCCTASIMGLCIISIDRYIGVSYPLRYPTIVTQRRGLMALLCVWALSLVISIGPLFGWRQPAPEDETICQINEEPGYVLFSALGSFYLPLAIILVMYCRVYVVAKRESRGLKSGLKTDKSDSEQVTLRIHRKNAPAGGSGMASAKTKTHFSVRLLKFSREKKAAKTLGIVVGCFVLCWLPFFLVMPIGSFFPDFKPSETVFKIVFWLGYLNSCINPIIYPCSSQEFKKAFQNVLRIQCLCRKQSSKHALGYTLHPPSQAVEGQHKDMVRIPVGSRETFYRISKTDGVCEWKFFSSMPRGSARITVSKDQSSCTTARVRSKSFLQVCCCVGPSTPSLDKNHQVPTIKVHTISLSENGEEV
Put plainly: Agonist activity at human cloned adrenergic alpha1A receptor expressed in CHO cells assessed as calcium mobilization by FLIPR. The format is functional, cell-based.

The target in series [2] is T2, Alpha-1B adrenergic receptor (Homo sapiens, UniProt P35368).
T2 sequence (P35368 whole entry): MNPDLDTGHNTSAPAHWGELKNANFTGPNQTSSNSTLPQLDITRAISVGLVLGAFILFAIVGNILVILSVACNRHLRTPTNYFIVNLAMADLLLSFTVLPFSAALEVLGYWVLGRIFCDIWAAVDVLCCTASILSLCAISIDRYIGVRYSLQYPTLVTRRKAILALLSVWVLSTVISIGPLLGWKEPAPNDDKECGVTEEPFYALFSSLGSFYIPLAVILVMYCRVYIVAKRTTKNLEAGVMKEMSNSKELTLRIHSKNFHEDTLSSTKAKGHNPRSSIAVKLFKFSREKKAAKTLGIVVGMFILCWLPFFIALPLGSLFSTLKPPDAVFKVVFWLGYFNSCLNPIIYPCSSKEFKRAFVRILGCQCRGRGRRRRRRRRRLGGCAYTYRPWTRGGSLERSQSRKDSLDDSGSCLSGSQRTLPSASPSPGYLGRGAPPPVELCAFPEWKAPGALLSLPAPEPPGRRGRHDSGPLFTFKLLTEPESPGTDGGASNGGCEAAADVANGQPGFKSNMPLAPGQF
In words: Agonist activity at human cloned adrenergic Alpha-1B receptor expressed in CHO cells assessed as calcium mobilization by FLIPR. Format: functional, cell-based.

In series [3] the target is T3, Alpha-1D adrenergic receptor (Homo sapiens, UniProt P25100).
T3 sequence (P25100 whole entry): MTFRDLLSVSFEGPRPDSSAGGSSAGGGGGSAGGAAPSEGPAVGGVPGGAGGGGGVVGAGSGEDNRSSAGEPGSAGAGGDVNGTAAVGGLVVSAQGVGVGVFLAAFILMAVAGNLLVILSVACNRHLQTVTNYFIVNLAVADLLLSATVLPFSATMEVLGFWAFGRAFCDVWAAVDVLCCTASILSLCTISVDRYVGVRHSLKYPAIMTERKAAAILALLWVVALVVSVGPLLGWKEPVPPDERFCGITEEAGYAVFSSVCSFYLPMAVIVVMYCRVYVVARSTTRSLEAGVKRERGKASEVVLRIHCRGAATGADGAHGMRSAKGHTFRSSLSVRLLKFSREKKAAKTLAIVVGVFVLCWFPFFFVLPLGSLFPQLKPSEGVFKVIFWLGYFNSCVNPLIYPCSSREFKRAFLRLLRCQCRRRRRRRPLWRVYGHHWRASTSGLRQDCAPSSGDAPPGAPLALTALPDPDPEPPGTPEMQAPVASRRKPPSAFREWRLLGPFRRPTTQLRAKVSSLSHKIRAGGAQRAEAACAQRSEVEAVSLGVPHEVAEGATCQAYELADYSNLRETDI
Put plainly: Agonist activity at human cloned adrenergic Alpha-1D receptor expressed in CHO cells assessed as calcium mobilization by FLIPR. The format is functional, cell-based.

The target of series [4] is T4, Alpha-2A adrenergic receptor (Homo sapiens, UniProt P08913).
T4 sequence (P08913 whole entry): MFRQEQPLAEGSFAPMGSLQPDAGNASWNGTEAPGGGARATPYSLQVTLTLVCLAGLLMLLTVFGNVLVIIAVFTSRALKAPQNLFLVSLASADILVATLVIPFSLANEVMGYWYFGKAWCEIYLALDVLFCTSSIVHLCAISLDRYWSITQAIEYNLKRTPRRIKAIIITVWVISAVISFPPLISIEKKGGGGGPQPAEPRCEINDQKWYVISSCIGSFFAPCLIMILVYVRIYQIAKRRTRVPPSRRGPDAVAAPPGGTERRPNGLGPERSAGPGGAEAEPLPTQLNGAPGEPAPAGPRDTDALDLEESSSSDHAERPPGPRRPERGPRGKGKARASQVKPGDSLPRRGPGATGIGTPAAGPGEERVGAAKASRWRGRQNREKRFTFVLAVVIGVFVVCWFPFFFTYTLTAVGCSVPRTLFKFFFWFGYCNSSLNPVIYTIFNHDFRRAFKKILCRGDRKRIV
Put plainly: Agonist activity at human cloned adrenergic alpha2A receptor expressed in CHOK1 cells by beta-lactamase reporter gene assay. Format: functional, cell-based, CHO-K1. Particulars: cho-k1; call rule not given here.

Series [5] can be described thus: Partition coefficient, log D at pH 7.4. Particulars: octanol/water, pH 7.4, logD.
The test system of another series is Liver microsomes. Put plainly: (§1) Intrinsic clearance in human liver microsomes. Format: ADME, Microsome. Particulars: microsomes.
A short description of series [6]: Membrane permeability by PAMPA assay. Format: ADME. Particulars: read-out: Papp.
Series [7] is described as follows: as §1. Format: ADME, Microsome. Particulars: liver microsomes.
Series [8] deals with Voltage-gated inwardly rectifying potassium channel KCNH2 (Homo sapiens, UniProt Q12809). In words: Inhibition of human ERG potassium channel up to 22 uM.
Series [9] in a line: Solubility in buffer solution at pH 1 to 9. The format is physicochemical.
Series [10] can be described thus: Clearance in rat at 0.3 mg/kg, […]. Format: ADME, organism-based. On the set-up: dose 0.3 mg/kg. The following applies: in vivo.
In the next series the test system is Rattus norvegicus. Put plainly: Volume of distribution at steady state in rat at 0.3 mg/kg, […]. Format: ADME, organism-based. On the set-up: dose 0.3 mg/kg. The following applies: in vivo.

Sequence of Voltage-gated inwardly rectifying potassium channel KCNH2 (Q12809 whole entry): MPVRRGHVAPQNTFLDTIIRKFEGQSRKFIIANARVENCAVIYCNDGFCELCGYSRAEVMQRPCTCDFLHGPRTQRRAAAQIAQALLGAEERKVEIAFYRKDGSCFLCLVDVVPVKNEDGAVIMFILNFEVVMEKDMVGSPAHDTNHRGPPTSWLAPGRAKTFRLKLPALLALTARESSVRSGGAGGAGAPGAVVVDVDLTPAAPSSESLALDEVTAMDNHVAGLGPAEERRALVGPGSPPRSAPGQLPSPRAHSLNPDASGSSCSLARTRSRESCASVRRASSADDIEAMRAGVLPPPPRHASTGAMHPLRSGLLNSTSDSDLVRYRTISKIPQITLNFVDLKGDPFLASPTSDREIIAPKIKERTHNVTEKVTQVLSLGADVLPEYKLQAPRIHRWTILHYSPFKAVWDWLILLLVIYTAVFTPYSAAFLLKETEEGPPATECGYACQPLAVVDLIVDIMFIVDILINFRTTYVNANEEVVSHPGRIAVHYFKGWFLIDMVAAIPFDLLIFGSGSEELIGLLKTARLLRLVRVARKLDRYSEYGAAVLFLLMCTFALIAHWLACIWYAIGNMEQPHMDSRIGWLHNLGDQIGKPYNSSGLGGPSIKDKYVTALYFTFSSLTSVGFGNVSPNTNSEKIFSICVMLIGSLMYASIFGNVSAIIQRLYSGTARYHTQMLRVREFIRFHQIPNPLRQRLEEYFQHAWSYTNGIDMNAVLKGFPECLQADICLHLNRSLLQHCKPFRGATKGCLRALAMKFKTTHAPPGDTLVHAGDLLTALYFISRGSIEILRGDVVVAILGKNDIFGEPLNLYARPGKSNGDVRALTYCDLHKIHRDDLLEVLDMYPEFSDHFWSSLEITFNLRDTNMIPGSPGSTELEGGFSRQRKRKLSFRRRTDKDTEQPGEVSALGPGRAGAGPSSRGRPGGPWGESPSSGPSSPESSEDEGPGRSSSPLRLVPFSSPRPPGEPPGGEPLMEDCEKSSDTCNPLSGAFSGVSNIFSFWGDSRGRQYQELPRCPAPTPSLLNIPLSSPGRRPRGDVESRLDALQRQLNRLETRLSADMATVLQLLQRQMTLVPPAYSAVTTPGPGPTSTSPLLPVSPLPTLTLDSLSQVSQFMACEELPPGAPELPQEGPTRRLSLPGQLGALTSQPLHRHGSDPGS

Regarding `c1ccc(C2Cc3nccn3C2)cc1` (single isomer, unassigned; enantiomer 1), the EC50 in [1] is 0.073 µM; in series [2] (cho), greater than 10 µM; in [3], 7.36 µM; in series [4], greater than 10 µM. Further, the logD in series [5] was 1.9. In the series with Liver microsomes, this compound yielded a CL of 15 µL/min/mg. Besides, in [6], the Papp was 51 ×10⁻⁶ cm/s.

As for `N#Cc1ccccc1C1Cc2nccn2C1` (configuration not stated), the EC50 was 0.051 µM in series [1], greater than 10 µM in [2] and greater than 10 µM in [3]. This compound also returned a logD in series [5] of 1.3. Besides, the microsomal CLint in series [7] was less than 7 µL/min/mg. Further, the Papp in series [6] came to 23 ×10⁻⁶ cm/s. Besides, in [8], the Activity result is given as “Not Active”. This compound also had a solubility in series [9] greater than 500 µg/mL. This compound had a CL/F in series [10] of 34 mL/min/kg. In addition, the Vdss in the series with Rattus norvegicus came out at 1.5 L/kg.
